# In publication PMC3973950, “Synthesis of 5-arylidine amino-1,3,4-thiadiazol-2-[(N-substituted benzyol)]sulphonamides endowed with potent antioxidants and anticancer activity induces growth inhibition in HEK293, BT474 and NCI-H226 cells” (Medicinal Chemistry Research, 2013):
# Columns and labels:
# [1] = Superoxide anion radical scavenging (NBT/NADH/PMS); type: biochemical; conditions: Conc. ± SD; standard catechin; read-out: IC50 inhibitory concentration, Superoxide anion
# Description: Measurement of superoxide anion scavenging activity of the synthesized compound was taken based on the method described by Nishimiki et al. ([1972]) and slightly modified. […] The reaction mixture was incubated at 25 °C for 5 min, and the absorbance at 560 nm was measured against blank samples. Catechin was used as reference compound. All the experiments were performed in triplicate, and the results were averaged. The percentage of inhibition was determined by comparing the results of control and test samples. The IC50 (nM/mL) value are depicted in Table 1.
# [2] = Nitric oxide radical scavenging (sodium nitroprusside, Griess reaction); type: biochemical; conditions: Conc. ± SD; standard curcumin; read-out: IC50 inhibitory concentration, Nitric oxide radical
# Description: Nitric oxide generated from sodium nitroprusside in aqueous solution at physiological pH interacts with oxygen to produce nitrite ions, which were measured by the Griess reaction (Marcocci et al., [1994]; Green et al., [1982]). Scavenger of nitric oxide competes with oxygen leading to reduced production of nitric oxide (Mondal et al., [2006]). The reaction mixture (3 mL) containing sodium nitroprusside (10 mM) in phosphate-buffered saline (PBS) and the compounds in different concentrations (10, 20, 30, 40, 50 and 100 μg) were incubated at 25 °C for 150 min. At every 30-min interval, the incubated sample (0.5 mL) was removed and Griess reagent (1 % sulphanilamide, 0.1 % naphthylethylene diamine dihydrochloride in 2 % H3PO4) (0.5 mL) was added. The absorbance of the chromophore formed was measured at 546 nm. All the analyses were performed in triplicate, and the results were averaged. The percentage inhibition of nitric oxide generated was measured by comparing the absorbance values of control and test.
# [3] = tested on: BT474 (breast cancer cell line); assay: In vitro cytotoxicity by MTT assay, BT474; type: cell-based; conditions: Homo sapiens, 72 h; for cytotoxicity at 0.005 µM: BT-474, 0.005 μM; for cytotoxicity at 0.005 µM / cytotoxicity at 0.015 µM / cytotoxicity at 0.045 µM / cytotoxicity at 0.13 µM / cytotoxicity at 0.41 µM / cytotoxicity at 1.23 µM / cytotoxicity at 3.7 µM / cytotoxicity at 11.11 µM / cytotoxicity at 33.33 µM / cytotoxicity at 100 µM: read-out: % cytotoxicity (100 − % cell survival) of BT474 cell line; for cytotoxicity at 0.015 µM: BT-474, 0.015 μM; for cytotoxicity at 0.045 µM: BT-474, 0.045 μM; for cytotoxicity at 0.13 µM: BT-474, 0.13 μM; for cytotoxicity at 0.41 µM: BT-474, 0.41 μM; for cytotoxicity at 1.23 µM: BT-474, 1.23 μM; for cytotoxicity at 3.7 µM: BT-474, 3.7 μM; for cytotoxicity at 11.11 µM: BT-474, 11.11 μM; for cytotoxicity at 33.33 µM: BT-474, 33.33 μM; for cytotoxicity at 100 µM: BT-474, 100 μM; for CC50: BT-474, BT474, concentration at which 50 % of the cells are dead, read-out: CTC50 (cytotoxicity concentration)
# Outline: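 Cells seeded at ~10,000/well in RPMI-1640 with 10 % newborn calf serum, grown 24 h, then exposed to compounds for 72 h at 37 °C, 5 % CO2. Viability read by MTT (4 h), formazan dissolved in propanol, absorbance at 490 nm.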
Structure (SMILES),IC50 [1],IC50 [2],cytotoxicity at 0.005 µM [3],cytotoxicity at 0.015 µM [3],cytotoxicity at 0.045 µM [3],cytotoxicity at 0.13 µM [3],cytotoxicity at 0.41 µM [3],cytotoxicity at 1.23 µM [3],cytotoxicity at 3.7 µM [3],cytotoxicity at 11.11 µM [3],cytotoxicity at 33.33 µM [3],cytotoxicity at 100 µM [3],CC50 [3]
"O=C(NS(=O)(=O)c1nnc(N=Cc2ccccc2)s1)c1ccccc1 [Compound 9a, N-{[5-(Benzylidenamino)-1,3,4-thiadiazol-2-yl]sulphonyl} benzamide]",152 ± 14.4 µM,104 ± 7.5 µM,35.3%,35.8%,36.4%,37%,38%,39%,40.2%,40.6%,41.5%,66%,
"COc1ccccc1C=Nc1nnc(S(=O)(=O)NC(=O)c2ccccc2)s1 [Compound 9c, N-({5-[(2-Methoxybenzylidene)amino]-1,3,4-thiadiazol-2-yl}sulfonyl)benzamide]",128 ± 21.7 µM,81.9 ± 10.4 µM,38.1%,41.5%,42.6%,44.4%,47%,50.4%,53.6%,54.8%,58.8%,67.1%,0.794 µM
"COc1ccc(C=Nc2nnc(S(=O)(=O)NC(=O)c3ccccc3)s2)cc1 [Compound 9d, N-({5-[(4-Methoxybenzylidene)amino]-1,3,4-thiadiazol-2-yl}sulfonyl)benzamide]",74.5 ± 8.3 µM,53 ± 6.74 µM,33.3%,33.4%,33.5%,34%,34.2%,36.8%,36.8%,37.4%,38%,39.4%,
"O=C(NS(=O)(=O)c1nnc(N=Cc2ccccc2O)s1)c1ccccc1 [Compound 9f, N-({5-[(2-Hydroxybenzylidene)amino]-1,3,4-thiadiazol-2-yl}sulfonyl)benzamide]",36.7 ± 14.4 µM,38 ± 11.8 µM,30.6%,32.6%,33.9%,34.8%,34.8%,35.5%,35.8%,36.1%,38.2%,38.7%,
"COc1cc(C=Nc2nnc(S(=O)(=O)NC(=O)c3ccccc3)s2)ccc1O [Compound 9g, N-({5-[(4-Hydroxy-3-methoxybenzylidene)amino]-1,3,4-thiadiazol-2-yl}sulfonyl)benzamide]",,,27.4%,28%,28.7%,29.2%,31.4%,32.8%,33.2%,34.7%,36.2%,38.1%,
"CN(C)c1ccc(C=Nc2nnc(S(=O)(=O)NC(=O)c3ccccc3)s2)cc1 [Compound 9h, N-[(5-{[4-(Dimethylamino)benzylidene]amino}-1,3,4-thiadiazol-2-yl)sulfonyl]benzamide]",,,29%,29.1%,30.6%,32.9%,33.8%,34.2%,35.2%,38.4%,41.5%,47.7%,

# The next lines start with results.
IC50 [1],IC50 [2],Structure (SMILES),cytotoxicity at 0.005 µM [3],cytotoxicity at 0.015 µM [3],cytotoxicity at 0.045 µM [3],cytotoxicity at 0.13 µM [3],cytotoxicity at 0.41 µM [3],cytotoxicity at 1.23 µM [3],cytotoxicity at 3.7 µM [3],cytotoxicity at 11.11 µM [3],cytotoxicity at 33.33 µM [3],cytotoxicity at 100 µM [3],CC50 [3]
76.3 ± 11.8 µM,52.6 ± 16.7 µM,"O=C(NS(=O)(=O)c1nnc(N=Cc2ccc(Cl)cc2)s1)c1ccccc1 [Compound 9b, N-({5-[(4-Chlorobenzylidene)amino]-1,3,4-thiadiazol-2-yl}sulfonyl)benzamide]",38.8%,39.4%,41.5%,42%,46.1%,50.1%,56.3%,60.7%,62.3%,65%,2.41 µM
136 ± 22.5 µM,155 ± 17.6 µM,"O=C(NS(=O)(=O)c1nnc(N=Cc2ccc(O)cc2)s1)c1ccccc1 [Compound 9e, N-({5-[(4-Hydroxybenzylidene)amino]-1,3,4-thiadiazol-2-yl}sulfonyl)benzamide]",25.2%,26.4%,27.3%,28.9%,29.9%,31.9%,37.9%,41.8%,47.5%,56.2%,
